Columns and labels:
[1] = tested on: HeLaS3 cells; assay: Measurement of cytotoxicity on cultivated human tumour cells (AlamarBlue); assay type: cell-based; settings: HeLa in Table 1; unit inferred
Procedure: The activity of the compounds according to the invention was determined in the cytotoxicity test on cultivated human tumour cells and/or in a FACS analysis, for example on HeLaS3 cells.
Measurement of Cytotoxicity on Cultivated Human Tumour Cells
To measure the cytotoxicity on cultivated human tumour cells, cells of the cervical cancer tumour cell line HeLaS3 (obtained from American Type Culture Collection (ATCC)) in Ham's F12 Medium (Life Technologies) and 10% foetal calf serum (Life Technologies) were cultivated and harvested in the logarithmic growth phase. Then the HeLaS3 cells were placed in 96-well plates (Costar) at a density of 1000 cells per well and incubated overnight in an incubator (at 37° C. and 5% CO2), while on each plate 6 wells were filled only with medium (3 wells as a control of the medium, 3 wells for incubation with reduced AlamarBlue). The active substances were added to the cells in various concentrations (dissolved in DMSO; final concentration: 1%) (in each case as a triple measurement). After 72 hours' incubation, 20 μl of AlamarBlue (AccuMed International) were added to each well, and the cells were incubated for a further 7 hours. As a control, 20 μl of reduced Alamar Blue (AlamarBlue reagent which had been autoclaved for 30 min) were added to 3 wells. After 7 h incubation the colour change of the AlamarBlue reagent in the individual wells was determined in a Perkin Elmer fluorescence spectrophotometer (excitation 530 nm, emission 590 nm, slits 15, integrate time 0.1). The amount of AlamarBlue reagent reacted represents the metabolic activity of the cells. The relative cell activity was calculated as a percentage of the control (HeLa S3 cells without inhibitor) and the active substance concentration which inhibits the cell activity by 50% (IC^50) was obtained. The values were calculated from the average of three individual measurements, correcting for the control value (medium control).

[2] = tested on: H460-VINC; assay: Cytotoxicity on H460-VINC cells (Table 1; method not given); assay type: cell-based; settings: H460-VINC of Table 1; unit inferred

| Compound | IC50 [1] | IC50 [2] |
| --- | --- | --- |
| COc1cc(C(=O)NC2CCC(N3CCCCC3)CC2)ccc1Nc1ncc2c(n1)N(C1CCCCC1)C(C)C(=O)N2C (centres unmarked) [Example 126] | 51 nM | 742 nM |
| C[C@@H]1C(=O)N(C)c2cnc(Nc3ccc(C(=O)NC4CCN(C)CC4)cc3)nc2N1C1CCCCC1 [Example 85] | 25 nM | 754 nM |
| CCC1C(=O)N(C)c2cnc(Nc3ccc(C(=O)NC4CCC(N5CCCC5)CC4)cc3OC)nc2N1C(C)C (centres unmarked) [Example 135] | 12 nM | 699 nM |
| COc1cc(C(=O)NCCCN2CCOCC2)ccc1Nc1ncc2c(n1)N(C1CCCC1)C(C)C(=O)N2C (centres unmarked) [Example 63] | 81 nM | 206 nM |
| COc1cc(C(=O)N[C@H]2CC[C@H](N3CCCC3)CC2)ccc1Nc1ncc2c(n1)N(C1CCCCC1)[C@H](C)C(=O)N2C [Example 98] | 77 nM | 1320 nM |
| CC[C@@H]1C(=O)N(C)c2cnc(Nc3ccc(C(=O)N[C@H]4CC[C@H](N5CCOCC5)CC4)cc3OC)nc2N1C1CCCCC1 [Example 97] | 32 nM | 66 nM |
| COc1cc(C(=O)NC2CC3CCC(C2)N3C)ccc1Nc1ncc2c(n1)N(CCC(C)C)C(C)(C)C(=O)N2C (centres unmarked) [Example 43] | 94 nM | ≥ 3000 nM |
| COc1cc(C(=O)NC2CC(C)(C)N(C)C(C)(C)C2)ccc1Nc1ncc2c(n1)N(C1CCCC1)[C@H](C)C(=O)N2C [Example 30] | 12 nM | 574 nM |
| CCC1C(=O)N(C)c2cnc(Nc3ccc(C(=O)NC4CC(C)(C)N(C)C(C)(C)C4)cc3OC)nc2N1C1CCCC1 (centres unmarked) [Example 21] | 9 nM | 488 nM |
| CCC1C(=O)N(C)c2cnc(Nc3ccc(C(=O)NCC(C)(C)CN(C)C)cc3OC)nc2N1C1CCCC1 (centres unmarked) [Example 58] | 10 nM | 23 nM |
| CC[C@@H]1C(=O)N(C)c2cnc(Nc3ccc(C(=O)NCCN4CCCC4)cc3OC)nc2N1CCC(C)C [Example 170] | 45 nM | 427 nM |
| CC1C(=O)N(C)c2cnc(Nc3ccc(C(=O)NC4CCC(N(C)C)CC4)cc3)nc2N1C1CCCC1 (centres unmarked) [Example 14] | 55 nM | ≥ 3000 nM |
| CC[C@@H]1C(=O)N(C)c2cnc(Nc3ccc(C(=O)NCCN(CC)CC)cc3OC)nc2N1CCC(C)C [Example 158] | 43 nM | 536 nM |
| CCC1C(=O)N(C)c2cnc(Nc3ccc(C(=O)NCC(C)(C)CN(C)C)cc3OC)nc2N1C(C)C (centres unmarked) [Example 57] | 38 nM | 67 nM |
| COc1cc(C(=O)NC2CCC(N3CCOCC3)CC2)ccc1Nc1ncc2c(n1)N(C1CCCCC1)C(C)C(=O)N2C (centres unmarked) [Example 130] | 15 nM | 91 nM |
| COc1cc(C(=O)NCCN(C)C)ccc1Nc1ncc2c(n1)N(C1CCCC1)C(C)C(=O)N2C (centres unmarked) [Example 67] | 52 nM | 566 nM |

| Compound | IC50 [1] | IC50 [2] |
| --- | --- | --- |
| CCC1C(=O)N(C)c2cnc(Nc3ccc(C(=O)NC(C)(C)CN4CCCC4)cc3OC)nc2N1C(C)C (centres unmarked) [Example 54] | 31 nM | 226 nM |
| CC[C@@H]1C(=O)N(C)c2cnc(Nc3ccc(C(=O)NCCC4CCCN4C)cc3OC)nc2N1CCC(C)C (some centres unmarked) [Example 167] | 34 nM | 817 nM |
| CCC1C(=O)N(C)c2cnc(Nc3ccc(C(=O)NC4CCC(N5CCCC5)CC4)cc3OC)nc2N1C1CCCC1 (centres unmarked) [Example 138] | 43 nM | 1140 nM |
| COc1cc(C(=O)NC(C)(C)CN2CCCC2)ccc1Nc1ncc2c(n1)N(C(C)C)C(C)C(=O)N2C (centres unmarked) [Example 56] | 64 nM | 324 nM |
| COc1cc(C(=O)NCCN2CCOCC2)ccc1Nc1ncc2c(n1)N(C1CCCC1)C(C)C(=O)N2C (centres unmarked) [Example 65] | 52 nM | 216 nM |
| Cc1cc(C(=O)NC2CCN(C)CC2)ccc1Nc1ncc2c(n1)N(C1CCCCC1)[C@H](C)C(=O)N2C [Example 94] | 18 nM | 510 nM |
| COc1cc(C(=O)NC2CC3CCC(C2)N3C)ccc1Nc1ncc2c(n1)N(C1CCCCC1)[C@H](C)C(=O)N2C (some centres unmarked) [Example 91] | 41 nM | 1780 nM |
| CCN1CCC(NC(=O)c2ccc(Nc3ncc4c(n3)N(CC(C)(C)C)C(C)C(=O)N4C)cc2)CC1 (centres unmarked) [Example 11] | 86 nM | 1300 nM |
| CCC1C(=O)N(C)c2cnc(Nc3ccc(C(=O)NC4CCC(N(C)C)CC4)cc3OC)nc2N1C1CCCC1 (centres unmarked) [Example 23] | 13 nM | 679 nM |
| COc1cc(C(=O)NC2CCN(C3CCOCC3)CC2)ccc1Nc1ncc2c(n1)N(C1CCCCC1)C(C)C(=O)N2C (centres unmarked) [Example 120] | 14 nM | 374 nM |
| CCN1CCC(NC(=O)c2ccc(Nc3ncc4c(n3)N(C(C)C)C(C)C(=O)N4C)c(OC)c2)CC1 (centres unmarked) [Example 20] | 83 nM | ≥ 3000 nM |
| COc1cc(C(=O)NCC(C)(C)CN(C)C)ccc1Nc1ncc2c(n1)N(CC(C)(C)C)C(C)C(=O)N2C (centres unmarked) [Example 52] | 79 nM | 153 nM |
| CCC1C(=O)N(C)c2cnc(Nc3ccc(C(=O)NC4CCN(C)CC4)cc3OC)nc2N1C1CCCC1 (centres unmarked) [Example 46] | 12 nM | 208 nM |
| CCN1CCC(NC(=O)c2ccc(Nc3ncc4c(n3)N(C3CCCC3)C(C)C(=O)N4C)c(OC)c2)CC1 (centres unmarked) [Example 17] | 24 nM | 730 nM |
| COc1cc(C(=O)NC(C)(C)CN2CCCC2)ccc1Nc1ncc2c(n1)N(CC(C)(C)C)C(C)C(=O)N2C (centres unmarked) [Example 50] | 81 nM | 436 nM |

From patent US7786299B2, “Methods for treating diseases or conditions using dihydropteridinone compounds” (Boehringer Ingelheim Pharma GmbH & Co. KG, priority 2003, dated 2010)
